Test results from patent publication US5833946A, “Dissemination of fungal infections: animal model and method of prophylaxis” (priority 1995, dated 1998).
Like-named read-outs stand apart in the source and are kept apart here. Non-standard residues stand in square brackets, D forms with d. Residues, ends and D or L forms follow the SMILES beside them. *: point of attachment. Sta = CC(C)C[C@H](N)[C@@H](O)CC(=O)O; Isovaleryl = CC(C)CC(=O)*

Legend:
C. albicans ATCC 32354 [1] = test: Survival after lethal airway (intranasal) challenge in immunosuppressed mice; format: in vivo; details: for ED50: Candida albicans, ATCC32354, ip, i.p. daily days 0-4, neutropenic mice, intranasal challenge, read-out: EC50 (survival, airway challenge)
Source text: (§1) To examine the role of the protease under conditions in which the challenge dose of C. albicans first has to cross the airway epithelium before it can disseminate, the following procedure was developed. To both mimic the immunosuppressed patient state and increase susceptibility of the test animals to C. albicans, mice were rendered neutropenic by treatment with cyclophosphamide, and received concurrent ciprofloxacin treatment to block opportunistic infection by endogenous gram negative flora.
(§2) Challenge inoculum was prepared by streaking Candida albicans (ATCC 32354) onto Sabouraud dextrose agar from a frozen glycerol stock and incubating overnight at 37° C. Five hours before challenge, the culture was re-streaked onto four Sabouraud dextrose agar slants and incubated (4 h. 37° C.). The culture was then washed from the agar slants with sterile saline, resuspended in fresh saline to achieve an A660nm of 0.2, and kept on ice until used. Fifty μl of a 10^-4 dilution of this challenge stock was plated to determine retrospectively the exact challenge dose in c.f.u. Female Swiss Webster mice (Charles River Breeding Laboratories, Inc., Wilmington, Mass., approx. 23 g, ten mice per group) received 125 mgKg^-1 cyclophosphamide i.p. in 0.2 ml of saline on days -5 and -3, 0, 2 and 4 of the study. On day 0, mice were anesthetized with 80 mgKg^-1 sodium pentobarbital i.p. and challenged intranasally with either 2.5×10^5 c.f.u. in 50 μl of saline or 50 μl of saline only (toxicity controls). On each of days 1 to 4 mice also received 50 mgKg^-1 Ciprofloxacin (i.p. in WFI/5% (w/v) glucose) to prevent bacterial infection in the immunocompromised mice. On days 0 to 4, groups of mice (n=10) received one of the following daily treatments (0.1 ml i.p.): saline, amphotericin B (0.1 to 1.0 mgKg^-1); and pepstatin A (0.06 to 6.0 mgKg^-1). Pepstatin A was dissolved in DMSO at 13.8 mgml^-1 and diluted 1:10 in saline for the 6 mgKg^-1 dose. Lower doses were diluted in normal saline serially from the 6 mgKg^-1 dose. Stock amphotericin B (5 mg/ml in WFI) was diluted in WFI containing 5% glucose. Treatment with drug on day zero was performed three hours prior to airway challenge with C. albicans. Survival was monitored for fifteen days following challenge. Toxicity controls were weighed daily over the duration of treatment. Animals from parallel groups (n=10) of mice were sacrificed at various stages and used to determine organ burdens and histopathology. Organ burdens were determined in parallel in 3 mice from parallel groups that were sacrificed on days 2, 4, and 17. Mice were anesthetized with sodium pentobarbital (80 mgKg^-1), bled by cardiac puncture, and then given a lethal dose of sodium pentobarbital. The kidneys, spleen, liver, and lungs were removed, weighed, and homogenized in 10 ml sterile PBS. Each organ homogenate (including heart blood) was serially diluted, plated on Sabauroud dextrose agar and incubated overnight at 37° C. Resulting colonies were counted to derive c.f.u./gram wet weight of organ.

[2] = system: peak II secretory protease of C. albicans ATCC 32354; test: Dns-ISEVNLDAEFR-amide cleavage by mono-Q peak II protease (HPLC, fluorimetric); format: biochemical
Protocol: (§3) The proteases secreted by C. albicans ATCC 32354 also hydrolyzed the fluorescent peptide Dns-Ile-Ser-Glu-Val-Asn-Leu-Asp-Ala-Glu-Phe-Arg-amide (SEQ ID NO: 4), abbreviated Dns-ISEVNLDAEFR-amide. Aliquots of the protease-containing fractions recovered from mono-Q chromatography described in Example 1 (2 to 10 μl) were incubated with 30 μM final concentration of the fluorescent substrate Dns-ISEVNLDAEFR-amide at 37° C. in 60 μl 50 mM sodium citrate buffer of pH 4.4 for 15 minutes, after which reactions were terminated by addition of 50 μM pepstatin A in 33% v/v methanol to 10 μM final concentration, and set aside for HPLC analysis. […] Unconverted Dns-ISEVNLDAEFR-amide (RT=5.55 min) and fluorescent products eluting at 4.2 min (Dns-Ile-Ser-Glu-Val-Asn-Leu (SEQ ID NO: 5), and 3.0 min (unidentified), were resolved and detected fluorimetrically.
(§4) The secretory aspartic proteases produced by other pathogenic C. albicans strains and Candida sp. are inhibitable by pepstatin A and are therefore of the aspartyl class. To determine if the peak I, II, or III protease activities secreted by ATCC 32354 were also of the aspartyl class, their susceptibility to inhibition by pepstatin A was determined. […]

C. albicans ATCC 32354 [3] = test: Growth of C. albicans in culture (A660nm); format: cell-based
Protocol: To study the effects of pepstatin A on growth of C. albicans, 0.1 ml of an overnight C. albicans culture was used to inoculate 10 ml cultures of either 1) YCB/BSA, or 2) a YD medium (0.2% yeast extract, 2% glucose) that contained 40 mM ammonium chloride. Pepstatin A was included in the cultures at final concentrations ranging between 0 and 10 μM (administered from a 50 μM aqueous stock). Growth of cultures at 30° C. was monitored by following A660nm. The growth of ATCC 32354 in YCB/BSA was inhibited about 90% by 2 μM pepstatin A (table II). This effect of pepstatin was fungistatic as resuspension of arrested cells in fermentation medium devoid of pepstatin A restored cell growth. […] Since ammonium chloride both removes dependence on, and suppresses the production of the secretory acid proteases, the mechanism of pepstatin inhibition action is likely to involve protease inhibition.

C. albicans ATCC 32354 [4] = test: Mortality after intravenous challenge; format: in vivo, mice
Protocol: Female Swiss Webster mice (n=10 per treatment group) were challenged by tail vein injection with 10^6 c.f.u. Candida albicans ATCC 32354 in 0.2 ml saline and mortality was monitored over the following 14 days. Three hr prior to challenge with candida, and on days 1 to 5 post challenge with candida, mice also received one of the following compounds (i.p. in saline): saline alone; 0.6 mgKg^-1 pepstatin A, or 1 mgKg^-1 amphotericin B. Challenge inoculum containing C. albicans was prepared in the same manner as used for airway challenge experiments except that it was adjusted to a final A660nm of 2.0.

C. albicans [5] = test: Control experiments with ciprofloxacin alone (data not shown); details: ciprofloxacin by itself
Source text: as §1

C. albicans ATCC 32354 [6] = test: Formation of hyphae in culture (Gram stain, microscopy); format: cell-based; details: YCB/BSA, 48 hours, 2 μM and above
Protocol: Aliquots of cultures were removed after 48 hours, heat fixed on slides, and Gram stained (VWR Scientific, Inc., Boston, Mass.).

C. albicans ATCC 32354 [7] = test: Organ burdens (c.f.u.) after intranasal challenge in immunosuppressed mice; format: in vivo; set-up: C. albicans, kidney / C. albicans, lungs: scale not given here
Protocol: as §2

C. albicans ATCC 32354 [8] = test: Histopathology of lung sections after airway challenge; format: in vivo, mice; details: 0.06 and 0.6 mg/Kg^-1
Protocol: For histopathology, mice from above described groups (two mice per group) were sacrificed on days 2 and 4 by administration of a lethal dose of sodium pentobarbitol. The lungs, liver, kidneys, and spleen were removed intact, embedded in paraffin, sectioned (5 μm), and stained with ammoniacal silver to visualize the Candida. Slides were stained by immersing in 4% periodic acid for 5 minutes, rinsing in distilled water five times, then immersing in a solution of ammoniacal silver (0.1% silver nitrate, 0.02% lithium hydroxide monohydrate) that had been heated by microwave (420 W for 1 min). Slides were microwaved in this solution for one minute then allowed to remain in the hot solution for one more minute before rinsing four times in distilled water and toning in 0.2% gold chloride for thirty seconds. Slides were then rinsed twice in distilled water, placed in 2% sodium thiosulfate for thirty seconds, then rinsed three times and dehydrated through graded alcohols. Finally, slides were cleared in 3-4 changes of xylene and mounted with Permount.

C. albicans [9] = details: administered prior to i.v. challenge with C. albicans; cited from earlier work
[10] = system: peak III secretory protease of C. albicans ATCC 32354; test: Dns-ISEVNLDAEFR-amide cleavage by mono-Q peak III protease (HPLC, fluorimetric); format: biochemical; details: peak III enzyme, read-out: I.C.50 Pepstatin
Protocol: as §3, §4

[11] = system: peak I secretory protease of C. albicans ATCC 32354; test: Dns-ISEVNLDAEFR-amide cleavage by mono-Q peak I protease (HPLC, fluorimetric); format: biochemical; details: peak I enzyme
Protocol: as §3, §4

[12] = 0.6 mg Kg^-1, 4 days post challenge

## 1{92S,4S,5S)-5-[(2S)-3-(tert-Butylsulphonyl)-2-(1-naphthylmethyl)propanoyl]-(2R)N-(tert-butoxycarbonyl)-2-amino-2-[2-(1,3-dithiolan-2-yl)]ethanoyl]amino-6-cyclohexyl-4-hydroxy-2-(1-methyl)ethyl-hexanoyl}-s-isoleucinyl-2-yridylamide [compound X]
C. albicans ATCC 32354 [1]; 0.1 mgKg^-1
  protection against lethal airway challenge: Complete protection
[2]; peak II protease, read-out: I.C.50, in vitro activity of the peak II protease
  IC50: 110 nM
C. albicans ATCC 32354 [3]; YCB/BSA
  effect on growth of C. albicans in YCB/BSA: blocked growth
C. albicans ATCC 32354 [3]; YCB/BSA, 168 hours in culture, 10 μM (no compound 3.13)
  A660 nm: 0.26

## C[C@@H]1[C@H](O)[C@@H](C)/C=C/C=C/C=C/C=C/C=C/C=C/C=C/[C@H](O[C@@H]2O[C@H](C)[C@@H](O)[C@H](N)[C@@H]2O)C[C@@H]2O[C@](O)(C[C@@H](O)C[C@@H](O)[C@H](O)CC[C@@H](O)C[C@@H](O)CC(=O)O[C@H]1C)C[C@H](O)[C@H]2C(=O)O [amphotericin B]
C. albicans ATCC 32354 [1]; 1 mgKg^-1 i.p. daily days 0-4, first dose 3 h before challenge
  protection against lethal airway challenge: complete protection
C. albicans ATCC 32354 [1]
  ED50: ~0.1 mg/kg
C. albicans ATCC 32354 [4]; 1 mgKg^-1 i.p., 3 hr prior and days 1 to 5
  survival rate after 14 days, i.v. challenge: 70%

## O=C(O)c1cn(C2CC2)c2cc(N3CCNCC3)c(F)cc2c1=O [ciprofloxacin]
C. albicans [5]
  effect on C. albicans in vitro or in vivo: no effect

## CC(C)CC(=O)N[C@H](C(=O)N[C@H](C(=O)N[C@@H](CC(C)C)[C@@H](O)CC(=O)N[C@@H](C)C(=O)N[C@@H](CC(C)C)[C@@H](O)CC(=O)O)C(C)C)C(C)C [pepstatin A] (Isovaleryl-VV[Sta]A[Sta]-OH)
C. albicans ATCC 32354 [6]
  formation of hyphae in cultures: inhibited the formation of hyphae
C. albicans ATCC 32354 [7]; 0.06 mg Kg^-1, 4 days post challenge (0 dose 39 ± 18.4)
  C. albicans, kidney: 0.67 ± 0.15 c. f. u. g^-1 homogenized tiss
C. albicans ATCC 32354 [7]; 0.06 mg Kg^-1, 4 days post challenge (0 dose 4,540 ± 2,160)
  C. albicans, lungs: 0.58 ± 0.39 c. f. u. g^-1 homogenized tiss
C. albicans ATCC 32354 [7]; [12]
  C. albicans, kidney: 0.49 ± 0.22 c. f. u. g^-1 homogenized tiss
  C. albicans, lungs: 0.13 ± 0.19 c. f. u. g^-1 homogenized tiss
C. albicans ATCC 32354 [7]; all doses
  c.f.u. recovered from the kidneys: a small number of c.f.u.'s were recovered
C. albicans ATCC 32354 [7]; intranasal challenge
  c.f.u. remaining in the lung tissue: dramatically reduced
  dissemination to the spleen and liver: completely blocked dissemination
C. albicans ATCC 32354 [8]
  growth of C. albicans and hyphae formation in the lungs (histopathology): inhibited both the growth of C. albicans and hyphae formation
C. albicans [9]
  reduced mortality in a statistically significant fashion (neither/nor = did not): neither
[10]; product eluting at 3.0 min
  IC50: 29 nM
[10]; product eluting at 4.2 min
  IC50: 36 nM
C. albicans ATCC 32354 [1]; 0.6 mgKg^-1 i.p. daily days 0-4, airway challenge
  survival: 100%
C. albicans ATCC 32354 [1]
  ED50: ~0.06 mg/kg
C. albicans ATCC 32354 [1]; airway challenge, dose-dependent, 0.06 to 0.6 mgKg^-1
  protective effect upon pretreating mice: strong protective effect
C. albicans ATCC 32354 [4]; 0.6 mgKg^-1 i.p.
  survival time post i.v. challenge: did not survive past day two
C. albicans ATCC 32354 [4]; 0.6 mgKg^-1 i.p., 3 hr prior and days 1 to 5
  protective effect, classical i.v. challenge protocol: no protective effect
[2]; peak II enzyme, product eluting at 4.2 min, read-out: I.C.50 Pepstatin
  IC50: 28 nM
C. albicans ATCC 32354 [3]; Candida albicans, ATCC32354, YCB/BSA, 2 μM
  inhibition at 2 µM: ~90%
C. albicans ATCC 32354 [3]; YCB/BSA
  nature of growth effect (resuspension without inhibitor restored growth): fungistatic
C. albicans ATCC 32354 [3]; YCB/BSA, 145 hours in culture, 2.0 μM (control 1.97)
  A660 nm: 0.18
C. albicans ATCC 32354 [3]; YCB/BSA, 145 hours in culture, 10.0 μM (control 1.97)
  A660 nm: 0.17
C. albicans ATCC 32354 [3]; YD + 40 mM ammonium chloride, up to 10 μM
  inhibitory effect on growth in YD containing ammonium chloride: no significant inhibitory effects
C. albicans ATCC 32354 [3]; YD + NH4Cl, 145 hours in culture, 2.0 μM (control 2.97)
  A660 nm: 2.99
C. albicans ATCC 32354 [3]; YD + NH4Cl, 145 hours in culture, 10.0 μM (control 2.97)
  A660 nm: 3.20
[11]; product eluting at 3.0 min, 15 min pre-incubation, 1 hr reaction, pH 4.4, read-out: I.C.50 Pepstatin
  IC50: 9 nM
[11]; product eluting at 4.2 min, N. I. = no inhibition
  I.C.50 Pepstatin: N. I.
